Test results from ChEMBL document CHEMBL5724914, “Linking interpersonal differences in gut microbiota composition and drug biotransformation activity” (2024).

What was measured:
[1] = human gut metagenome, 24 h, 2 µM
[2] = human gut metagenome, 24 h, 2 µM; remark: listed apart in the source
[3] = (§1) The drug is tested on Z-020 corresponding to rabbit gut metagenome with ENA study accession number: PRJEB37062 and ENA sample accession number: ERS12561819 for biotransformation under anaerobic condition. The drug concentrations were measured over 9 timepoints collected between 0 and 24 hours of incubation by liquid-chromatography-coupled mass spectrometry (LC–MS); details: 2 µM
[4] = as §1, with “WLS-170” for “Z-020”, “human” for “rabbit”, “ERS12561762” for “ERS12561819”; details: 2 µM
[5] = as §1, with “Z-016” for “Z-020”, “mouse” for “rabbit”, “ERS12561815” for “ERS12561819”; details: 2 µM
[6] = human gut metagenome, 24 h, 2 µM; remark: listed apart in the source
[7] = human gut metagenome, 24 h, 2 µM; remark: listed apart in the source
[8] = human gut metagenome, 24 h, 2 µM; remark: listed apart in the source
[9] = as §1, with “Z-021” for “Z-020”, “to” for “to rabbit gut”, “ERS12561820” for “ERS12561819”; details: 2 µM
[10] = as §1, with “WLS-350” for “Z-020”, “human” for “rabbit”, “ERS12561789” for “ERS12561819”; details: 2 µM
[11] = human gut metagenome, 24 h, 2 µM; remark: listed apart in the source
[12] = as §1, with “Z-006” for “Z-020”, “mouse” for “rabbit”, “ERS12561806” for “ERS12561819”; details: 2 µM
[13] = as §1, with “Z-027” for “Z-020”, “to” for “to rabbit gut”, “ERS12561826” for “ERS12561819”; details: 2 µM
[14] = as §1, with “Z-023” for “Z-020”, “to” for “to rabbit gut”, “ERS12561822” for “ERS12561819”; details: 2 µM
[15] = as §1, with “Z-010” for “Z-020”, “to” for “to rabbit gut”, “ERS12561810” for “ERS12561819”; details: 2 µM
[16] = as §1, with “Z-018” for “Z-020”, “pig” for “rabbit”, “ERS12561817” for “ERS12561819”; details: 2 µM
[17] = as §1, with “WLS-038” for “Z-020”, “human” for “rabbit”, “ERS12561745” for “ERS12561819”; details: 2 µM
[18] = as §1, with “Z-008” for “Z-020”, “to” for “to rabbit gut”, “ERS12561808” for “ERS12561819”; details: 2 µM
[19] = human gut metagenome, 24 h, 2 µM; remark: listed apart in the source
[20] = as §1, with “WLS-007” for “Z-020”, “human” for “rabbit”, “ERS12561742” for “ERS12561819”; details: 2 µM
Note: call rule not given here.

Compound	Bacterial Biotransformation [1]	Bacterial Biotransformation [2]	Bacterial Biotransformation [3]	Bacterial Biotransformation [4]	Bacterial Biotransformation [5]	Bacterial Biotransformation [6]	Bacterial Biotransformation [7]	Bacterial Biotransformation [8]	Bacterial Biotransformation [9]	Bacterial Biotransformation [10]	Bacterial Biotransformation [11]	Bacterial Biotransformation [12]	Bacterial Biotransformation [13]	Bacterial Biotransformation [14]	Bacterial Biotransformation [15]	Bacterial Biotransformation [16]	Bacterial Biotransformation [17]	Bacterial Biotransformation [18]	Bacterial Biotransformation [19]	Bacterial Biotransformation [20]
Cc1ccc(S(=O)(=O)NC(=O)NN2CCCCCC2)cc1 [TOLAZAMIDE]	Compound metabolized	Compound NOT metabolized	Compound NOT metabolized	Compound metabolized	Compound metabolized	Compound metabolized	Compound metabolized	Compound metabolized	Compound metabolized	Compound NOT metabolized	Compound NOT metabolized	Compound metabolized	Compound NOT metabolized	Compound metabolized	Compound metabolized	Compound metabolized	Compound metabolized	Compound NOT metabolized	Compound metabolized	Compound metabolized
CC(CN(C)C)CN1c2ccccc2CCc2ccccc21.O=C(O)/C=C\C(=O)O (stereo not given) [TRIMIPRAMINE MALEATE]	Compound NOT metabolized	Compound NOT metabolized	Compound NOT metabolized	Compound metabolized	Compound NOT metabolized	Compound metabolized	Compound metabolized	Compound metabolized	Compound NOT metabolized	Compound NOT metabolized	Compound metabolized	Compound NOT metabolized	Compound NOT metabolized	Compound metabolized	Compound NOT metabolized	Compound NOT metabolized	Compound NOT metabolized	Compound NOT metabolized	Compound NOT metabolized	Compound metabolized
CC(Oc1c(Cl)cccc1Cl)C1=NCCN1 (stereo not given) [LOFEXIDINE]	Compound NOT metabolized	Compound NOT metabolized	Compound NOT metabolized	Compound metabolized	Compound NOT metabolized	Compound NOT metabolized	Compound NOT metabolized	Compound metabolized	Compound NOT metabolized	Compound NOT metabolized	Compound NOT metabolized	Compound NOT metabolized	Compound NOT metabolized	Compound NOT metabolized	Compound NOT metabolized	Compound NOT metabolized	Compound NOT metabolized	Compound NOT metabolized	Compound NOT metabolized	Compound metabolized
CN1CCC(=C2c3ccccc3CCc3cccnc32)CC1.O=C(O)/C=C\C(=O)O.O=C(O)/C=C\C(=O)O [AZATADINE MALEATE]	Compound NOT metabolized	Compound NOT metabolized	Compound NOT metabolized	Compound NOT metabolized	Compound NOT metabolized	Compound NOT metabolized	Compound NOT metabolized	Compound NOT metabolized	Compound NOT metabolized	Compound NOT metabolized	Compound NOT metabolized	Compound NOT metabolized	Compound NOT metabolized	Compound NOT metabolized	Compound NOT metabolized	Compound NOT metabolized	Compound NOT metabolized	Compound NOT metabolized	Compound NOT metabolized	Compound NOT metabolized
Cc1ccnc2c1NC(=O)c1cccnc1N2C1CC1 [NEVIRAPINE]	Compound NOT metabolized	Compound metabolized	Compound NOT metabolized	Compound metabolized	Compound NOT metabolized	Compound NOT metabolized	Compound NOT metabolized	Compound metabolized	Compound NOT metabolized	Compound metabolized	Compound metabolized	Compound NOT metabolized	Compound NOT metabolized	Compound metabolized	Compound NOT metabolized	Compound NOT metabolized	Compound NOT metabolized	Compound NOT metabolized	Compound NOT metabolized	Compound metabolized
CC(C)N(CCC(C(N)=O)(c1ccccc1)c1ccccn1)C(C)C.O=P(O)(O)O (stereo not given) [DISOPYRAMIDE PHOSPHATE]	Compound NOT metabolized	Compound NOT metabolized	Compound NOT metabolized	Compound NOT metabolized	Compound NOT metabolized	Compound NOT metabolized	Compound NOT metabolized	Compound NOT metabolized	Compound NOT metabolized	Compound NOT metabolized	Compound NOT metabolized	Compound NOT metabolized	Compound NOT metabolized	Compound NOT metabolized	Compound NOT metabolized	Compound NOT metabolized	Compound NOT metabolized	Compound NOT metabolized	Compound NOT metabolized	Compound metabolized
CC(=O)CC(c1ccccc1)c1c(O)c2ccccc2oc1=O (stereo not given) [WARFARIN]	Compound metabolized	Compound metabolized	Compound metabolized	Compound metabolized	Compound metabolized	Compound metabolized	Compound metabolized	Compound metabolized	Compound NOT metabolized	Compound metabolized	Compound metabolized	Compound metabolized	Compound NOT metabolized	Compound metabolized	Compound metabolized	Compound metabolized	Compound NOT metabolized	Compound NOT metabolized	Compound metabolized	Compound metabolized
CS(=O)(=O)O.OC(CCN1CCCCC1)(c1ccccc1)c1ccccc1 [PRIDINOL METHANESULFONATE]	Compound NOT metabolized	Compound NOT metabolized	Compound NOT metabolized	Compound metabolized	Compound NOT metabolized	Compound NOT metabolized	Compound metabolized	Compound metabolized	Compound NOT metabolized	Compound NOT metabolized	Compound NOT metabolized	Compound NOT metabolized	Compound NOT metabolized	Compound NOT metabolized	Compound NOT metabolized	Compound NOT metabolized	Compound NOT metabolized	Compound NOT metabolized	Compound NOT metabolized	Compound NOT metabolized
